Results published in ChEMBL document CHEMBL4184243, “Optimization of antimalarial, and anticancer activities of (E)-methyl 2-(7-chloroquinolin-4-ylthio)-3-(4-hydroxyphenyl) acrylate” (Bioorg Med Chem, 2018).

Legend:
Jurkat E6.1 [1] = assay: Induction of apoptosis in human Jurkat E6-1 cells assessed as late apoptotic cells at 50 uM after 24 hrs by Annexin-V-FITC/propidium iodide staining based flow cytometric analysis (reference value: 0.73 +/- 0.14 %); type: functional
Jurkat E6.1 [2] = assay: Induction of apoptosis in human Jurkat E6-1 cells assessed as necrotic cells at 50 uM after 24 hrs by Annexin-V-FITC/propidium iodide staining based flow cytometric analysis (reference value: 1.26 +/- 0.24 %); type: functional
HL-60 [3] = assay: Induction of apoptosis in human HL60 cells assessed as necrotic cells at 50 uM after 24 hrs by Annexin-V-FITC/propidium iodide staining based flow cytometric analysis (reference value: 1.96 +/- 0.33 %); type: functional
HL-60 [4] = assay: Induction of apoptosis in human HL60 cells assessed as late apoptotic cells at 50 uM after 24 hrs by Annexin-V-FITC/propidium iodide staining based flow cytometric analysis (reference value: 0.85 +/- 0.13 %); type: functional
HL-60 [5] = assay: Induction of apoptosis in human HL60 cells assessed as early apoptotic cells at 50 uM after 24 hrs by Annexin-V-FITC/propidium iodide staining based flow cytometric analysis (reference value: 0.36 +/- 0.02 %); type: functional
Jurkat E6.1 [6] = assay: Induction of apoptosis in human Jurkat E6-1 cells assessed as early apoptotic cells at 50 uM after 24 hrs by Annexin-V-FITC/propidium iodide staining based flow cytometric analysis (reference value: 0.5 +/- 0.07 %); type: functional
Lymphocyte = assay: Cytotoxicity against human lymphocytes after 24 to 48 hrs by MTT assay; type: cell-based
[7] = Inhibition of beta-hematin formation assessed as reduction in acetate buffer-initiated hemozoin formation measured after 48 hrs; parameters: concentration or dose not given beside the values; conditions: concentration not given here
[8] = Selectivity index, ratio of IC50 for human lymphocytes to IC50 for human HL60 cells; type: toxicity; conditions: human lymphocytes versus HL60 cells, read-out: Ratio IC50
Jurkat E6.1 [9] = assay: Cytotoxicity against human Jurkat E6-1 cells after 24 hrs by MTT assay; type: functional, cell-based; conditions: Jurkat E6.1, 24 h
HL-60 [10] = assay: Cytotoxicity against human HL60 cells after 24 hrs by MTT assay; type: functional, cell-based; conditions: HL-60, 24 h
[11] = Selectivity index, ratio of IC50 for human lymphocytes to IC50 for human Jurkat E6-1 cells; type: toxicity; conditions: human lymphocytes versus Jurkat E6-1 cells, read-out: Ratio IC50
Plasmodium berghei [12] = assay: Antimalarial activity against chloroquine-susceptible Plasmodium berghei ANKA infected in Balb-C mouse assessed as parasitemia at 10 mg/kg, ip administered once daily for 4 days measured post last dose by Giemsa staining based method (reference value: 65.8 +/- 4.38%); type: functional
Plasmodium berghei [13] = assay: Antimalarial activity against chloroquine-susceptible Plasmodium berghei ANKA infected in Balb-C mouse assessed as mean survival days at 10 mg/kg, ip administered once daily for 4 days (reference value: 8.4 +/- 0.15 day); type: functional
HL-60 [14] = assay: Induction of apoptosis in human HL60 cells assessed as late apoptotic cells at 5 uM after 24 hrs by Annexin-V-FITC/propidium iodide staining based flow cytometric analysis (reference value: 0.85 +/- 0.13 %); type: functional
HL-60 [15] = assay: Induction of apoptosis in human HL60 cells assessed as necrotic cells at 5 uM after 24 hrs by Annexin-V-FITC/propidium iodide staining based flow cytometric analysis (reference value: 1.96 +/- 0.33 %); type: functional
HL-60 [16] = assay: Induction of apoptosis in human HL60 cells assessed as early apoptotic cells at 5 uM after 24 hrs by Annexin-V-FITC/propidium iodide staining based flow cytometric analysis (reference value: 0.36 +/- 0.02 %); type: functional
Jurkat E6.1 [17] = assay: Induction of apoptosis in human Jurkat E6-1 cells assessed as late apoptotic cells at 5 uM after 24 hrs by Annexin-V-FITC/propidium iodide staining based flow cytometric analysis (reference value: 0.73 +/- 0.14 %); type: functional
Jurkat E6.1 [18] = assay: Induction of apoptosis in human Jurkat E6-1 cells assessed as necrotic cells at 5 uM after 24 hrs by Annexin-V-FITC/propidium iodide staining based flow cytometric analysis (reference value: 1.26 +/- 0.24 %); type: functional
Jurkat E6.1 [19] = assay: Induction of apoptosis in human Jurkat E6-1 cells assessed as early apoptotic cells at 5 uM after 24 hrs by Annexin-V-FITC/propidium iodide staining based flow cytometric analysis (reference value: 0.5 +/- 0.07 %); type: functional
HL-60 [20] = assay: Induction of apoptosis in human HL60 cells assessed as early apoptotic cells at 1 uM after 24 hrs by Annexin-V-FITC/propidium iodide staining based flow cytometric analysis (reference value: 0.36 +/- 0.02 %); type: functional
HL-60 [21] = assay: Induction of apoptosis in human HL60 cells assessed as late apoptotic cells at 1 uM after 24 hrs by Annexin-V-FITC/propidium iodide staining based flow cytometric analysis (reference value: 0.85 +/- 0.13 %); type: functional
Jurkat E6.1 [22] = assay: Induction of apoptosis in human Jurkat E6-1 cells assessed as necrotic cells at 1 uM after 24 hrs by Annexin-V-FITC/propidium iodide staining based flow cytometric analysis (reference value: 1.26 +/- 0.24 %); type: functional
Jurkat E6.1 [23] = assay: Induction of apoptosis in human Jurkat E6-1 cells assessed as early apoptotic cells at 1 uM after 24 hrs by Annexin-V-FITC/propidium iodide staining based flow cytometric analysis (reference value: 0.5 +/- 0.07 %); type: functional
HL-60 [24] = assay: Induction of apoptosis in human HL60 cells assessed as necrotic cells at 1 uM after 24 hrs by Annexin-V-FITC/propidium iodide staining based flow cytometric analysis (reference value: 1.96 +/- 0.33 %); type: functional
Jurkat E6.1 [25] = assay: Induction of apoptosis in human Jurkat E6-1 cells assessed as late apoptotic cells at 1 uM after 24 hrs by Annexin-V-FITC/propidium iodide staining based flow cytometric analysis (reference value: 0.73 +/- 0.14 %); type: functional

SMILES | IC50 (Lymphocyte) | inhibition [7] | selectivity ratio [8] | IC50 (Jurkat E6.1 [9]) | IC50 (HL-60 [10]) | selectivity ratio [11] | further results
O=c1c(O)c(-c2ccc(O)c(O)c2)oc2cc(O)cc(O)c12 [QUERCETIN] | – | – | – | – | – | – | Activity (Jurkat E6.1 [1]): 9.51%; Activity (Jurkat E6.1 [2]): 31.9%; Activity (HL-60 [3]): 31%; Activity (HL-60 [4]): 3.07%; Activity (HL-60 [5]): 0.46%; Activity (Jurkat E6.1 [6]): 0.64%
COC(=O)/C(=C\c1ccc(OC(=O)c2cc(OC)cc(OC)c2OC)cc1)Sc1ccnc2cc(Cl)ccc12 | 74 µM | 47.7% | 6.91 | 15.6 µM | 10.7 µM | 4.74 | –
COC(=O)/C(=C\c1ccc(OC(=O)c2cccc(OC)c2)cc1)Sc1ccnc2cc(Cl)ccc12 | > 100 µM | 87.1% | – | 33.2 µM | 25.5 µM | – | Activity (Plasmodium berghei [12]): 1.5%; MSD (Plasmodium berghei [13]): 27.16 days
COC(=O)/C(=C\c1ccc(OC(=O)c2ccc(OC)cc2)cc1)Sc1ccnc2cc(Cl)ccc12 | 63.5 µM | 12.2% | 6.99 | 11 µM | 9.09 µM | 5.77 | –
COC(=O)/C(=C\c1ccc(OC(=O)c2ccccc2OC)cc1)Sc1ccnc2cc(Cl)ccc12 | > 100 µM | 94.6% | – | 44.6 µM | 44.5 µM | – | Activity (Plasmodium berghei [12]): 1.2%; MSD (Plasmodium berghei [13]): 28.83 days
COC(=O)/C(=C\c1ccc(OC(=O)c2ccc(OC)cc2OC)cc1)Sc1ccnc2cc(Cl)ccc12 | 41.6 µM | 49.2% | 5.45 | 10.2 µM | 7.64 µM | 4.09 | –
COC(=O)/C(=C\c1ccc(OC(=O)c2ccc(OC)c(OC)c2)cc1)Sc1ccnc2cc(Cl)ccc12 | 51.1 µM | 12.7% | 9.66 | 8.29 µM | 5.29 µM | 6.16 | Activity (HL-60 [14]): 2.15%; Activity (HL-60 [15]): 40.2%; Activity (HL-60 [16]): 0.33%; Activity (Jurkat E6.1 [17]): 13.5%; Activity (Jurkat E6.1 [18]): 21.5%; Activity (Jurkat E6.1 [19]): 0.76%
COC(=O)/C(=C\c1ccc(OC(=O)c2cccc(OC)c2OC)cc1)Sc1ccnc2cc(Cl)ccc12 | 86.6 µM | 38.6% | 6.66 | 25.8 µM | 13 µM | 3.36 | –
COc1cccc2c1C(=O)c1c(O)c3c(c(O)c1C2=O)C[C@@](O)(C(=O)CO)C[C@@H]3O[C@H]1C[C@H](N)[C@H](O)[C@H](C)O1 [DOXORUBICIN] | 4.36 µM | – | – | 1.03 µM | 1.6 µM | – | Activity (HL-60 [20]): 1.91%; Activity (HL-60 [21]): 20.8%; Activity (Jurkat E6.1 [22]): 32.6%; Activity (Jurkat E6.1 [23]): 0.89%; Activity (HL-60 [24]): 30.2%; Activity (Jurkat E6.1 [25]): 19.8%
COC(=O)/C(=C\c1ccc(OC(=O)c2cc(OC)cc(OC)c2)cc1)Sc1ccnc2cc(Cl)ccc12 | 84.1 µM | 85.6% | 4.42 | 28.9 µM | 19 µM | 2.92 | Activity (Plasmodium berghei [12]): 1.4%; MSD (Plasmodium berghei [13]): 28.5 days
O=[As][As+](=O)[O-] (stereo not drawn) [ARSENIC TRIOXIDE] | 15.3 µM | – | 3.07 | 7.32 µM | 4.97 µM | 2.09 | –
COC(=O)/C(=C\c1ccc(OC(=O)c2cc(OCc3ccccc3)c(OCc3ccccc3)c(OCc3ccccc3)c2)cc1)Sc1ccnc2cc(Cl)ccc12 | > 100 µM | 23% | – | > 100 µM | > 100 µM | – | –
COC(=O)/C(=C\c1ccc(O)cc1)Sc1ccnc2cc(Cl)ccc12 | 33.7 µM | 72.4% | 7.82 | 5.18 µM | 4.31 µM | 6.51 | Activity (HL-60 [14]): 3.15%; Activity (HL-60 [15]): 45%; Activity (HL-60 [16]): 0.74 - 0.75%; Activity (Plasmodium berghei [12]): 1.4%; Activity (Jurkat E6.1 [17]): 2.12%; MSD (Plasmodium berghei [13]): 24.8 days; Activity (Jurkat E6.1 [18]): 38.8%; Activity (Jurkat E6.1 [19]): 0.45%
COC(=O)/C(=C\c1ccc(OC(=O)c2c(OC)cccc2OC)cc1)Sc1ccnc2cc(Cl)ccc12 | > 100 µM | 92.7% | – | 37.5 µM | 37.2 µM | – | Activity (Plasmodium berghei [12]): 2.6%; MSD (Plasmodium berghei [13]): 23 days
COC(=O)/C(=C\c1ccc(OC(=O)c2ccccc2)cc1)Sc1ccnc2cc(Cl)ccc12 | > 100 µM | 33.6% | – | 35.7 µM | 30.2 µM | – | –
COC(=O)/C(=C\c1ccc(OC(=O)c2cc(OC)c(OC)c(OC)c2)cc1)Sc1ccnc2cc(Cl)ccc12 | 35.2 µM | 2.48% | 8.3 | 4.57 µM | 4.24 µM | 7.7 | Activity (HL-60 [14]): 11.3%; Activity (HL-60 [15]): 45.8%; Activity (HL-60 [16]): 0.75%; Activity (Jurkat E6.1 [17]): 10.3%; Activity (Jurkat E6.1 [18]): 35.6%; Activity (Jurkat E6.1 [19]): 2.41%
COC(=O)/C(=C\c1ccc(OC(=O)c2cc(OC)c(OC)cc2OC)cc1)Sc1ccnc2cc(Cl)ccc12 | 52.5 µM | 39.6% | 8.34 | 9.65 µM | 6.26 µM | 5.44 | Activity (HL-60 [14]): 4.21%; Activity (HL-60 [15]): 29.5%; Activity (HL-60 [16]): 0.61%; Activity (Jurkat E6.1 [17]): 3.17%; Activity (Jurkat E6.1 [18]): 21.4%; Activity (Jurkat E6.1 [19]): 0.85%
